Results taken from patent US20100099642A1, “TGF-BETA STIMULANT AND FURTHER AGENT TO REDUCE SIDE EFFECTS” (TCP Innovations Limited, priority 2007, published 2010).

How the values were obtained:
[1] = system: TGF-beta activity; test: TGF-beta activity estimated by smooth muscle cell proliferation (CPD with/without neutralising anti-TGF-beta antibody); format: cell-based, human; details: for effect of lower doses on CPD and hence TGF-beta activity: doses below 10 μM Tamoxifen / below 100 μM aspirin; for TGF-beta activity: ratio of CPD in the absence vs presence of neutralising anti-TGF-beta antibody: 0 μM T, 72 hrs
Experimental: The cells were cultured (37° C.; 5% CO2) in DMEM+20% foetal calf serum (FCS), and subcultured every 5 days at 1:2 dilution, using 0.02% trypsin/EDTA (Gibco).
For the experiments, the cells were subcultured into 12-well cluster plates at 1×10^5 cells/cm^2, and allowed to grow for 24 hrs. […] The cells were then incubated for either 24 hrs or 72 hrs depending on the experiment. All treatment conditions were established in triplicate.
Finally, TGF-beta activity was estimated by the direct effects on smooth muscle cell proliferation within the assay. For these experiments, the test agents were added, in triplicate, to cells both in the presence and absence of a neutralising antibody to TGF-beta (AB-100-NA; R&D Systems at 10 μg/ml, which is able to neutralise at least 25 ng/ml recombinant active TGF-beta1; R&D Systems). After 72 hrs incubation, the cells are washed and then released completely using 0.02% trypsin/EDTA (Gibco) at 37° C. for 10 mins, then counted manually using a haemocytometer. Importantly, the number of cells at 0 hrs must also be determined (using the same counting method, on a replicate set of three wells plated out specifically for the purpose). For each treatment condition, the TGF-beta-dependent inhibition of proliferation is expressed as the fold increase in the cumulative population doubling time in the absence of the neutralising antibody compared to the cumulative population doubling time in the presence of the neutralising antibody. […] Failure of either control led to the repeat of the experiment.

[2] = system: apoE-deficient mice; test: vascular lipid lesion formation at the aortic root (Oil Red O) in apoE-deficient mice; format: in vivo, mouse; details: 12 weeks in chow, TMX 1 mg/kg/day, Aspirin 30 mg/kg/day, mean ± SD, n = 8
Excerpt: Adult male apoE-deficient mice, back-crossed onto a C57B16 background for at least five generations, were randomised into groups of eight animals at 12 weeks of age, such that each group had similar average body weight. […] Note that the mice receiving both compounds received food pellets into which a homogenous mixture of the ingredients had been compounded, and not a mixture of food pellets each containing one of the two active ingredients. The amount of food eaten and the body weight of each mouse was monitored daily for the first week, and once per week thereafter. After 12 weeks of treatment, the mice were sacrificed by CO2 asphyxiation, and heart & lung blocks were excised, embedded in Cryo-M-bed (Bright Instruments, UK) without fixation and snap frozen in liquid nitrogen.
Sections were then prepared from the aortic root according to the Paigen Strategy (a defined sequence of cutting sections which allow reproducible comparison between animals; see for example Grainger et al. (1995) Nature Med. 1:1067-72 and the references therein). 4 μm crysosections were cut using a motordriven cryotome (Bright Instruments) and collected onto poly-L-lysine coated glass microscope slides, then fixed in ice-cold acetone for 90 secs, allowed to air dry and stored at −20° C. until analysed.
The extent of vascular lipid lesion formation was assessed by Oil Red O staining, with a Fast Green counterstain, a standard histological procedure well known in the art. Briefly, five sections (selected according to the Paigen strategy) from each animal were passed through graded alcohol solutions, then stained in Oil Red O for 12 minutes, washed several times and then counterstained by dipping in Fast Green for 5-10 secs, and then dip washed in several changes of clean water. After air drying, an appropriate mountant was applied (simple glycerol-based moutants are most appropriate for this task), followed by a coverslip using acrylic varnish surrounding the coverslip to hold it in place. Slides were then analysed using a simple inverted microscope (no phase contrast; 10× objective; Olympus AX series), fitted with a digital camera to capture images of the entire aortic wall. The images were subsequently processed, blind to the treatment status of the animal, using Openlab image analysis software (Improvision, UK) running on an Apple Macintosh computer. […]
Mice were sacrificed and heart & lung blocks prepared and processed exactly as described in Example 2. […] The extent of lipid lesion formation was assessed by Oil Red O staining with Fast Green counterstain, exactly as in example 2.

SMILES | effect of lower doses on CPD and hence TGF-beta activity [1] | Intimal lipid lesion area [2] | Lipid lesion area [2] | Total intimal area [2] | TGF-beta activity: ratio of CPD in the absence vs presence of neutralising anti-TGF-beta antibody ([1]; 10 μM A) | TGF-beta activity: ratio of CPD in the absence vs presence of neutralising anti-TGF-beta antibody ([1]; 33 μM A) | TGF-beta activity: ratio of CPD in the absence vs presence of neutralising anti-TGF-beta antibody ([1]; 100 μM A) | TGF-beta activity: ratio of CPD in the absence vs presence of neutralising anti-TGF-beta antibody ([1]; 100 μM A, listed as A)
CC/C(=C(\c1ccccc1)c1ccc(OCCN(C)C)cc1)c1ccccc1 [Tamoxifen] | no statistically significant effect | 9,393 ± 2,221 μm2 | 10,794 ± 2,820 μm2 | 64,428 ± 4,294 μm2 | – | – | – | –
CC(=O)Oc1ccccc1C(=O)O [Aspirin, acetylsalicylic acid] | no statistically significant effect | – | – | 65,209 ± 6,712 μm2 | 1.05 ± 0.09 fold | 1.13 ± 0.17 fold | 1.25 fold | 1.25 ± 0.06 fold
